Test results reported in ChEMBL document CHEMBL1201862, “PubChem BioAssay data set” (2004).
“And” between values parts separate entries of the source, which are not always exact repeats. Identical values can stand only once.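 96-well plates; 48 h exposure; 5 concentrations. Endpoints by linear interpolation between flanking doses. Not reached: highest tested concentration assigned. GI50: concentration for 50% inhibition of growth.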 The source made the active and inactive calls. No stated cut-off is given here; in the data, active = GI50 up to about 1.1 µM and inactive = higher.

Key:
Experiment in all cases: DTP human tumour cell line panel, 48 h
[1] = tested on: 786-0
[2] = tested on: A549
[3] = tested on: ACHN
[4] = tested on: COLO 205
[5] = tested on: HT-29
[6] = tested on: Hs-578T
[7] = tested on: M14
[8] = tested on: MDA-N
[9] = tested on: MOLT-4
[10] = tested on: Malme-3M
[11] = tested on: NCI-H226
[12] = tested on: NCI/ADR-RES
[13] = tested on: SF-539
[14] = tested on: SK-MEL-5
[15] = tested on: SNB-75
[16] = tested on: SW-620
[17] = tested on: TK-10
[18] = tested on: UACC-62
[19] = tested on: HL-60
[20] = tested on: MDA-MB-231

Measured: GI50

COC(=O)/C=C\n1c(C)cc(=O)[nH]c1=O
inactive: [1] > 100 µM | [2] > 100 µM | [3] > 100 µM | [4] > 100 µM | [5] > 100 µM | [6] > 100 µM | [7] > 100 µM | [8] > 100 µM | [9] > 100 µM | [10] > 100 µM | [11] > 100 µM | [12] > 100 µM | [13] > 100 µM | [14] > 100 µM | [15] 58.2 µM | [16] > 100 µM | [17] > 100 µM | [18] > 100 µM

Cc1ccc2nc3ccccc3c(C3C4C(=O)N(c5ccc(Br)cc5Cl)C(=O)C4ON3C(C(N)=O)c3ccccc3)c2c1 (configuration not stated)
inactive: [1] 20.8 µM | [2] > 25 µM | [3] 6.73 µM | [4] > 25 µM | [19] > 25 µM | [5] 11.2 µM | [6] > 25 µM | [7] 11.6 µM | [20] > 25 µM | [8] 6.9 µM | [9] 8.73 µM | [10] > 25 µM | [11] 17.2 µM | [13] 11.8 µM | [14] 19.1 µM | [15] > 25 µM | [16] > 25 µM | [17] > 25 µM | [18] 7.93 µM

OC(Cc1cccc2ccccc12)CN1CCC(c2ccccc2)CC1 (configuration not stated)
inactive: [1] 15 µM | [2] 15.9 µM | [3] 17.1 µM | [4] 13 µM | [19] 16.7 µM | [5] 11.2 µM | [6] 15.8 µM | [7] 13.8 µM | [20] 14.2 µM | [8] 14.3 µM | [12] 14.9 µM | [13] 17.3 µM | [14] 12.1 µM | [15] 12.3 µM | [16] 15 µM | [17] 12.8 µM | [18] 15.3 µM

COc1cccc2c1CCc1sc(CN3CCN(C)CC3)nc1-2
inactive: [1] 78.5 µM | [2] > 100 µM | [3] > 100 µM | [4] 61.2 µM | [5] 20.4 µM | [6] > 100 µM | [7] 51.1 µM | [20] 85.7 µM | [8] 55.5 µM | [9] 22.4 µM | [10] > 100 µM | [11] 59.8 µM | [12] > 100 µM | [14] 28.1 µM | [15] > 100 µM | [16] > 100 µM | [17] > 100 µM | [18] 26.2 µM

COC1OC(COC(=O)NCCCCC(=O)C(F)(F)C(F)(F)C(F)(F)C(F)(F)C(F)(F)C(F)(F)C(F)(F)F)C(O)C(O)C1O (configuration not stated)
inactive: [1] 16.4 µM and 16.5 µM | [2] 17.9 µM and 15.6 µM | [3] 15.6 µM and 16.4 µM | [4] 25.9 µM and 21.8 µM | [5] 15.8 µM and 13.5 µM | [6] 15.2 µM and 17.7 µM | [7] 14.8 µM and 16 µM | [20] 23.1 µM and 23.9 µM | [8] 24 µM and 26.4 µM | [10] 22.8 µM and 20.1 µM | [12] 34.5 µM and 28.4 µM | [13] 18 µM and 15.5 µM | [14] 13.1 µM and 12 µM | [15] 14.4 µM and 15.8 µM | [16] 17.1 µM and 15.8 µM | [17] 16.9 µM and 16.4 µM | [18] 13.7 µM and 14.4 µM

CSCCCNC(=O)c1csc(-c2csc(CCNC(=O)CNC(=O)OC(C)(C)C)n2)n1
inactive: [1] > 100 µM | [2] > 100 µM | [3] > 100 µM | [4] > 100 µM | [5] > 100 µM | [6] > 100 µM | [7] > 100 µM | [20] > 100 µM | [8] > 100 µM | [9] 40.7 µM | [10] > 100 µM | [11] > 100 µM | [12] > 100 µM | [13] > 100 µM | [14] 47.4 µM | [15] > 100 µM | [16] > 100 µM | [17] > 100 µM | [18] 28.6 µM

O=C1C=Cc2c1csc2Br
inactive: [1] 25.8 µM | [2] 41.5 µM | [3] 30.7 µM | [4] 64.7 µM | [5] 96.8 µM | [6] 41.2 µM | [7] 19.1 µM | [20] 91.8 µM | [8] 50 µM | [9] 21.3 µM | [10] 38.1 µM | [12] 33.8 µM | [14] 69.3 µM | [15] > 100 µM | [16] 22.3 µM | [17] 65 µM | [18] 35.3 µM

O=c1[nH]nc(-c2ccccc2)n1-n1cnnc1
inactive: [1] > 100 µM | [2] > 100 µM | [3] > 100 µM | [4] > 100 µM | [5] > 100 µM | [6] > 100 µM | [7] > 100 µM | [20] > 100 µM | [8] > 100 µM | [9] > 100 µM | [10] > 100 µM | [11] > 100 µM | [12] > 100 µM | [13] > 100 µM | [14] > 100 µM | [15] > 100 µM | [16] > 100 µM | [17] > 100 µM | [18] > 100 µM

CCCS(=O)OC1C(C2COC(C)(C)O2)OC2OC(C)(C)OC21 (configuration not stated)
inactive: [1] 13.2 µM | [2] 20.9 µM | [3] 13.7 µM | [4] 11.7 µM | [5] 3.89 µM | [6] 4.46 µM | [7] 8.61 µM | [20] 13.1 µM | [8] 15.1 µM | [9] 1.63 µM | [10] 9.59 µM | [11] 21.7 µM | [12] 17.5 µM | [13] 10.3 µM | [14] 13.2 µM | [15] 12.9 µM | [16] 8.49 µM | [17] 16.2 µM | [18] 12.1 µM

CCOC(=O)CCC(C(=O)OCC)n1nnc2cc(Nc3c(C)[n+]([O-])c4cc(F)c(OCC)cc4[n+]3[O-])ccc21 (configuration not stated)
inactive: [1] 34.5 µM | [2] > 100 µM | [3] 52.6 µM | [4] > 100 µM | [19] > 100 µM | [5] > 100 µM | [6] 30.3 µM | [7] > 100 µM | [8] > 100 µM | [9] > 100 µM | [10] > 100 µM | [11] > 100 µM | [12] > 100 µM | [13] 42.6 µM | [14] > 100 µM | [15] 37.4 µM | [16] > 100 µM | [17] 48.3 µM | [18] > 100 µM
